One assay has as its system GPR37-tGFP. The assay is described as follows: GPR37-tGFP translocation assay. It is filed as cell-based, mouse. The settings on record: 72 h. On the procedure: FIG. 2. Schematic representation of the rationale and the basic steps of GPR37-translocation assay. A. GPR37 is prone to misfolding and aggregation, which, in metabolically-active cells, are followed by degradation and results in low levels of functional receptor in the plasma membrane. The primary targets of the screening assay are compounds that can directly or indirectly facilitate maturation and trafficking of GPR37 to the plasma membrane. B. N2a cells stably expressing GPR37-tGFP are seeded in poly-D-Lysine coated 384 well plates at density 5000 cells/well. 24 h later cells are treated with compounds, including positive and negative controls, and incubated for 72 h. Then cells are fixed with 4% PFA and additionally stained with Hoechst 33342 (nuclei) and HCS CellMask™ red (cell body) to enable segmentation of the plasma membrane. Acquisition of fluorescence images is done using ImageXpress high content screening system (Molecular Devices). Quantification of GPR37-tGFP levels in the plasma membrane is done using CellProfiler software. FIG. 3. Schematic representation of Image analysis pipeline and final outcome data. Segmentation of the plasma membrane is performed in five main steps: 1) identification of nuclei (primary objects) using nuclear stain, 2) determination of cell borders using primary objects as seeds and growing these objects in respect of tGFP and HCS CellMask™ fluorescence intensity (secondary objects), 3) shrinking and expending secondary objects, 4) subtraction of shrunken cells from expended cells which results in membrane segmentation (tertiary objects), 5) tGFP fluorescence intensity is calculated within tertiary objects. Z′ factor is a quality measure of an assay which describes how well separated positive and negative controls are. Assays having Z′ factors above 0.5 are considered good assays. N2a cells stably expressing GPR37-tGFP were seeded in 384 BDFalcon BioCoat Poly-D-Lysine coated plates at a density of 5000 cells/well, and 50 μL incubation volume of maintenance medium. Cells were incubated at 37° C., 5% CO2 using humidity chamber. 24 h later, the cells were treated with 10 μL of compounds of desired concentration, including positive (2 mM dibutyryl-cAMP+0.5 mM 4-phenylbutyrate) and negative controls (0.1% DMSO), and incubated for 72 h. Cells were fixed with 4% PFA by adding 20 μL of 16% PFA directly to cell medium, incubating for 20 min and washing with PBS-Tween20 (0.05%). Directly after fixation cells were stained for nuclei with Hoechst 33342 (0.01 mg/mL) and for cell bodies with HCS CellMask™ Red stain (Thermo Fisher Scientific Inc.) (0.001 mg/mL) by incubating with the dyes for 30 min in PBS-Tween20 (0.05%) followed by washing with PBS. All the additional steps, including cell seeding were performed using Multidrop Combi dispenser (Thermo Scientific) and washing steps were done by means of HydroSpeed™ plate washer (Tecan). The images were captured using ImageXpress Micro XLS Widefield High-Content Analysis System (Molecular Devices, LLC) in 3 fluorescent channels (ImageXpress filters are listed, followed by excitation/emission in nm): DAPI (387/447), FITC (482/536) and TexasRed (562/624). Binning 2 was applied during the acquisition and digital confocal option was used for FITC and TexasRed filters. Typically, 5 images were taken per well at magnification 20× and stored as 16 bit, gray scale tif files along with metadata in Oracle database, for further analysis. Quantification of GPR37-tGFP levels in the plasma membrane was done using CellProfiler™ software. CellProfiler™ is an open-source cell image analysis software available at www.cellprofiler.org. An image analysis pipeline used for membrane segmentation consisted of 5 main steps (FIG. 3): 1) segmentation of nuclei (primary objects); 2) segmentation of cell bodies (secondary objects); 3) shrinking and expending cell bodies; 4) subtraction of shrank cells from expanded cells (tertiary objects—membranes); 5) calculating tGFP fluorescence in the membranes. […]

Assay [1] relates to GPR37-tGFP overexpressing cells. In words: Cytoprotection against Eeyarestatin (EeI), GPR37-tGFP overexpressing cells. It is filed as cell-based, mouse. As to the method: FIG. 9: Cytoprotection of Idoxuridine against Eel. Eeyarestatin (Eel) is a potent inhibitor of endoplasmic reticulum associated protein degradation (ERAD) pathway, specifically targeting p97. Eel-mediated reduction of cell viability is counteracted by idoxuridine in both GPR37-tGFP overexpressing cells (A) and WT (B) cells. Data represented as mean+SD. Analysis performed via one-way ANOVA with Neuman-Keuls post-test for both Figures. *** indicates p<0.001.
Eeyarestatin (EeI) is a potent inhibitor of endoplasmic reticulum associated protein degradation (ERAD) pathway, specifically targeting p97.

Take `O=c1[nH]c(=O)n([C@H]2C[C@H](O)[C@@H](CO)O2)cc1I` [Idoxuridine, 2′-deoxy-5-iodouridine]: the “concentration up to which GPR37-tGFP level at the plasma membrane increases in a dose response manner” value in the assay on GPR37-tGFP (dose response) is recorded as “around 5 μM”. Further, the EC50 with GPR37-tGFP (dose response, read-out: concentration giving 50% activity of positive control (GPR37-tGFP level at the plasma membrane)) was ~1 µM. Further, the “GPR37-tGFP level in the plasma membrane, activity of positive control” value in the assay on GPR37-tGFP (primary screen, 10 μM, positive control (dibutyryl-cAMP + 4-phenylbutyrate) = 100%) is recorded as “about 100%”. Besides, the “effect on EeI-mediated reduction of cell viability” value in assay [1] is given as “counteracted”.

(Values after patent US11103525B2, “Idoxuridine and its analogs as neuroprotectans for the treatment of parkinsonism” (priority 2017, dated 2021).)
